Data on 1 substance can be found in US20160199481A1 (priority 2013, published 2016).

What all share (type): cell-based, influenza A
Experiment [1] deals with WT HA/G147R NA virus.
Experiment [2] concerns PassMut HA/G147R NA virus.
The subject of experiment [3] is WT HA/G147R NA virus. This is another data set of the same source.
Experiment [4] has as its system PassMut HA/G147R NA virus. This is another data set of the same source.
In the next experiment the test system is G147R NA-only VLPs.

Entries after “also recorded” stand apart in the source; their conditions may differ.

Consider oseltamivir, for which the “neutralization of infectivity (percent infectivity remaining)” value in the experiment on WT HA/G147R NA virus [1] is “partially neutralized by oseltamivir; also recorded: intermediate phenotype”; in experiment [2], “nearly completely neutralized by oseltamivir; also recorded: strongly neutralized at low nanomolar oseltamivir concentrations”. Moreover, in the experiment with WT HA/G147R NA virus [3], the “inhibition of agglutination by oseltamivir” value is “uninhibited at all oseltamivir concentrations tested”. Besides, the “oseltamivir concentration down to which agglutination was inhibited” value worked out at 1.5 nM in experiment [4] and 0.12 nM with G147R NA-only VLPs. For the same substance, in the experiment on G147R NA-only VLPs, the “reversal of agglutination by G147R VLPs” value is recorded as “reversed the agglutination”.
